Values quoted from earlier work, collected in patent US20130323323A1, “Therapeutic Method and Associated Compound for Augmenting the Liver's Metabolization of Oxygen-Modified Toxins” (priority 2012, published 2013).
Where two headings read alike, the source gives them in different places. Each block holds one compound with its values, some of them ahead of it.

How the values were obtained:
[1] = limited supply of oxygen to the liver
[2] = pure oxygen via inhalation; rats, cats, and dogs
[3] = not given; remark: listed apart in the source

Structure (SMILES): Cn1c(=O)c2c(ncn2C)n(C)c1=O [Caffeine]
time to peak plasma concentration (after ingestion): 30 to 45 min
bioavailable (in vivo): ~100%

Structure (SMILES): CCO [alcohol, Ethanol]
rate at which alcohol is metabolized (plateau) [1]: around 0.02 g alcohol/100 ml blood per hour

solubility of oxygen in water ([3]; 5 degrees Celsius and 1 standard atmosphere): 9 ppm
solubility of oxygen in water ([3]; 25 degrees Celsius and 1 standard atmosphere): 6 ppm
Structure (SMILES): O=O [oxygen]
increase in the elimination rate of ethanol [2]: No measurable increase
